Where two headings read alike, the source gives them in different places.
Columns and labels:
[1] = biological target: recombinant human Mcl-1 (residues 171-327) / Bim interaction (Homo sapiens (Human), UniProt Q07820); assay: biochemical; assay type: binding; conditions: read-out: Mcl-1 HTRF IC50
[2] = system: human multiple myeloma cell line, OPM-2; assay: Cell viability assay (OPM-2 10 FBS), CellTiter-Glo; assay type: cell-based
Summary of the method: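 Steps: plate cells at 3000/well in 10% FBS growth medium, add serially diluted compound, incubate 16 h at 37 °C with 5% CO2, add detection reagent and read luminescence after 25 min. A 4-parameter logistic model gives IC50.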

[3] = TR-FRET, Mcl-1(171-327) / biotin-Bim (51-76)
[4] = read-out: OPM-2 10% FBS IC50 IP, OPM-2 cells, 10% FBS, 16 h, CellTiter-Glo
[5] = Homo sapiens, OPM-2, 16 h, read-out: OPM-2 10% FBS IC50 IP, OPM-2 cells, 10% FBS, 16 h, CellTiter-Glo

recombinant human Mcl-1 (residues 171-327) / Bim interaction, sequence (Q07820 171-327): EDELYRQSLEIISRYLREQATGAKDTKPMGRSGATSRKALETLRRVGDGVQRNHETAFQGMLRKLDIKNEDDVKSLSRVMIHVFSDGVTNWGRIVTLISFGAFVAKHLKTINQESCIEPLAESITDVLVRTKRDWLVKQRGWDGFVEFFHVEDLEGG

SMILES	IC50 [1, 3]	IC50 [2, 4]	IC50 [1]	IC50 [2, 5]
C[C@@H]1[C@@H](C)CCC[C@@](O)(C#CCCN2CCOCC2)[C@@H]2CC[C@H]2CN2C[C@@]3(CCCc4cc(Cl)ccc43)COc3ccc(cc32)C(=O)NS1(=O)=O [Example 100371, (1S,3′R,6′R,7′S,11′S,12′R)-6-chloro-7′-hydroxy-11′,12′-dimethyl-7′-(4-(4-morpholinyl)-1-butyn-1-yl)-3,4-dihydro-2H,15′H-spiro[naphthalene-1,22′-[20]oxa[13]thia[1,14]diazatetracyclo [14.7.2.0~3,6~.0~19,24~]pentacosa[16,18,24]trien]-15′-one 13′,13′-dioxide]	0.39 nM	307 nM		
C[C@@H]1[C@@H](C)CCC[C@@](O)(C#CCCN2CCOCC2)[C@@H]2CC[C@H]2CN2C[C@@]3(CCCc4cc(Cl)ccc43)COc3ccc(cc32)C(=O)NS1(=O)=O [Example 100372, (1S,3′R,6′R,7′S,11S,12R)-6-chloro-7′-hydroxy-11′,12′-dimethyl-7′-(4-(4-morpholinyl)-1-butyn-1-yl)-3,4-dihydro-2H,15′H-spiro[naphthalene-1,22′-[20]oxa[13]thia[1,14]diazatetracyclo [14.7.2.0~3,6~.0~19,24~]pentacosa[16,18,24]trien]-15′-one 13′,13′-dioxide]	0.165 nM	833 nM		
CO[C@@]1(CC(=O)C(C)C)/C=C/C[C@H](C)[C@@H](C)S(=O)(=O)NC(=O)c2ccc3c(c2)N(C[C@@H]2CC[C@H]21)C[C@@]1(CCCc2cc(Cl)ccc21)CO3 [Example 100373, (1S,3′R,6′R,7′S,8′E,11′S,12′R)-6-chloro-7′-methoxy-11′,12′-dimethyl-7′-(3-methyl-2-oxobutyl)-3,4-dihydro-2H,15′H-spiro[naphthalene-1,22′-[20]oxa[13]thia[1,14]diazatetracyclo [14.7.2.0~3,6~.0~19,24~]pentacosa[8,16,18,24]tetraen]-15′-one 13′,13′-dioxide]			0.318 nM	736 nM
CO[C@@]1(CC(=O)N(C)CC(F)(F)F)/C=C/C[C@H](C)[C@@H](C)S(=O)(=O)NC(=O)c2ccc3c(c2)N(C[C@@H]2CC[C@H]21)C[C@@]1(CCCc2cc(Cl)ccc21)CO3 [Example 100375, 2-((1S,3′R,6′R,7′S,8′E,11′S,12′R)-6-chloro-7′-methoxy-11′,12′-dimethyl-13′,13′-dioxido-15′-oxo-3,4-dihydro-2H-spiro[naphthalene-1,22′-[20]oxa[13]thia[1,14]diazatetracyclo [14.7.2.0~3,6~.0~19,24~]pentacosa[8,16,18,24]tetraen]-7′-yl)-N-methyl-N-(2,2,2-trifluoroethyl)acetamide]	0.07 nM			176 nM
CO[C@@]1(CC(=O)N2CCN(C)CC2)/C=C/C[C@H](C)[C@@H](C)S(=O)(=O)NC(=O)c2ccc3c(c2)N(C[C@@H]2CC[C@H]21)C[C@@]1(CCCc2cc(Cl)ccc21)CO3 [Example 100376, (1S,3′R,6′R,7′S,8′E,11′S,12′R)-6-chloro-7′-methoxy-11′,12′-dimethyl-7′-(2-(4-methyl-1-piperazinyl)-2-oxoethyl)-3,4-dihydro-2H,15′H-spiro[naphthalene-1,22′-[20]oxa[13]thia[1,14]diazatetracyclo [14.7.2.0~3,6~.0~19,24~]pentacosa[8,16,18,24]tetraen]-15′-one 13′,13′-dioxide]	0.15 nM			362 nM
CO[C@@]1(CC(=O)N(C)CCN2CCOCC2)/C=C/C[C@H](C)[C@@H](C)S(=O)(=O)NC(=O)c2ccc3c(c2)N(C[C@@H]2CC[C@H]21)C[C@@]1(CCCc2cc(Cl)ccc21)CO3 [Example 100377, 2-((1S,3′R,6′R,7′S,8′E,11′S,12′R)-6-chloro-7′-methoxy-11′,12′-dimethyl-13′,13′-dioxido-15′-oxo-3,4-dihydro-2H-spiro[naphthalene-1,22′-[20]oxa[13]thia[1,14]diazatetracyclo [14.7.2.0~3,6~.0~19,24~]pentacosa[8,16,18,24]tetraen]-7′-yl)-N-methyl-N-(2-(4-morpholinyl)ethyl)acetamide]	0.107 nM			182 nM
COC[C@]1(O)/C=C/C[C@H](C)[C@@H](C)S(=O)(=O)NC(=O)c2ccc3c(c2)N(C[C@@H]2CC[C@H]21)C[C@@]1(CCCc2cc(Cl)ccc21)CO3 [Example 100378, (1S,3′R,6′R,7′S,8′E,11′S,12′R)-6-chloro-7′-hydroxy-7′-(methoxymethyl)-11′,12′-dimethyl-3,4-dihydro-2H,15′H-spiro[naphthalene-1,22′-[20]oxa[13]thia[1,14]diazatetracyclo [14.7.2.0~3,6~.0~19,24~]pentacosa[8,16,18,24]tetraen]-15′-one 13′,13′-dioxide]	0.037 nM			111 nM
CO[C@]1(CC2=NC(C)(C)CO2)/C=C/C[C@H](C)[C@@H](C)S(=O)(=O)NC(=O)c2ccc3c(c2)N(C[C@@H]2CC[C@H]21)C[C@@]1(CCCc2cc(Cl)ccc21)CO3 [Example 100380, (1S,3′R,6′R,7′R,8′E,11′S,12′R)-6-chloro-7′-((4,4-dimethyl-4,5-dihydro-1,3-oxazol-2-yl)methyl)-7′-methoxy-11′,12′-dimethyl-3,4-dihydro-2H,15′H-spiro[naphthalene-1,22′-[20]oxa[13]thia[1,14]diazatetracyclo [14.7.2.0~3,6~.0~19,24~]pentacosa[8,16,18,24]tetraen]-15′-one 13′,13′-dioxide]	0.208 nM			137 nM
CO[C@]1(CCN(C)C)/C=C/C[C@H](C)[C@@H](C)S(=O)(=O)NC(=O)c2ccc3c(c2)N(C[C@@H]2CC[C@H]21)C[C@@]1(CCCc2cc(Cl)ccc21)CO3 [Example 100381, (1S,3′R,6′R,7′R,8′E,11′S,12′R)-6-chloro-7′-(2-(dimethylamino)ethyl)-7′-methoxy-11′,12′-dimethyl-3,4-dihydro-2H,15′H-spiro[naphthalene-1,22′-[20]oxa[13]thia[1,14]diazatetracyclo [14.7.2.0~3,6~.0~19,24~]pentacosa[8,16,18,24]tetraen]-15′-one 13′,13′-dioxide]	0.328 nM			2910 nM
C[C@@H]1[C@@H](C)CCC[C@@](O)(C2CCN(C)CC2)[C@@H]2CC[C@H]2CN2C[C@@]3(CCCc4cc(Cl)ccc43)COc3ccc(cc32)C(=O)NS1(=O)=O [Example 100382, (1S,3′R,6′R,7′R,11′S,12′R)-6-chloro-7′-hydroxy-11′,12′-dimethyl-7′-(1-methyl-4-piperidinyl)-3,4-dihydro-2H,15′H-spiro[naphthalene-1,22′-[20]oxa[13]thia[1,14]diazatetracyclo [14.7.2.0~3,6~.0~19,24~]pentacosa[16,18,24]trien]-15′-one 13′,13′-dioxide]	0.471 nM	312 nM		
C[C@@H]1[C@@H](C)C/C=C/[C@](O)(c2cnccn2)[C@@H]2CC[C@H]2CN2C[C@@]3(CCCc4cc(Cl)ccc43)COc3ccc(cc32)C(=O)NS1(=O)=O [Example 100383, (1S,3′R,6′R,7′R,8′E,11′S,12′R)-6-chloro-7′-hydroxy-11′,12′-dimethyl-7′-(2-pyrazinyl)-3,4-dihydro-2H,15′H-spiro[naphthalene-1,22′-[20]oxa[13]thia[1,14]diazatetracyclo [14.7.2.0~3,6~.0~19,24~]pentacosa[8,16,18,24]tetraen]-15′-one 13′,13′-dioxide]	0.264 nM			3430 nM
C[C@@H]1[C@@H](C)C/C=C/[C@@](O)(c2cccnc2)[C@@H]2CC[C@H]2CN2C[C@@]3(CCCc4cc(Cl)ccc43)COc3ccc(cc32)C(=O)NS1(=O)=O [Example 100384, (1S,3′R,6′R,7′S,8′E,11′S,12′R)-6-chloro-7′-hydroxy-11′,12′-dimethyl-7′-(3-pyridinyl)-3,4-dihydro-2H,15′H-spiro[naphthalene-1,22′-[20]oxa[13]thia[1,14]diazatetracyclo [14.7.2.0~3,6~.0~19,24~]pentacosa[8,16,18,24]tetraen]-15′-one 13′,13′-dioxide]	0.821 nM			729 nM
C[C@@H]1[C@@H](C)C/C=C/[C@](O)(c2ncccc2F)[C@@H]2CC[C@H]2CN2C[C@@]3(CCCc4cc(Cl)ccc43)COc3ccc(cc32)C(=O)NS1(=O)=O [Example 100385, (1S,3′R,6′R,7′R,8′E,11′S,12′R)-6-chloro-7′-(3-fluoro-2-pyridinyl)-7′-hydroxy-11′,12′-dimethyl-3,4-dihydro-2H,15′H-spiro[naphthalene-1,22′-[20]oxa[13]thia[1,14]diazatetracyclo [14.7.2.0~3,6~.0~19,24~]pentacosa[8,16,18,24]tetraen]-15′-one 13′,13′-dioxide]	0.144 nM			144 nM
C[C@@H]1[C@@H](C)CCC[C@@](O)(C2CCN(C)CC2)[C@@H]2CC[C@H]2CN2C[C@@]3(CCCc4cc(Cl)ccc43)COc3ccc(cc32)C(=O)NS1(=O)=O [Example 100386, (1S,3′R,6′R,7′R,11′S,12′R)-6-chloro-7′-hydroxy-11′,12′-dimethyl-7′-(1-methyl-4-piperidinyl)-3,4-dihydro-2H,15′H-spiro[naphthalene-1,22′-[20]oxa[13]thia[1,14]diazatetracyclo [14.7.2.0~3,6~.0~19,24~]pentacosa[16,18,24]trien]-15′-one 13′,13′-dioxide]	4.02 nM	7270 nM		
C[C@@H]1[C@@H](C)CCC[C@](O)(C2CCN(C)CC2)[C@@H]2CC[C@H]2CN2C[C@@]3(CCCc4cc(Cl)ccc43)COc3ccc(cc32)C(=O)NS1(=O)=O [Example 100387, (1S,3′R,6′R,7′S,11′S,12′R)-6-chloro-7′-hydroxy-11′,12′-dimethyl-7′-(1-methyl-4-piperidinyl)-3,4-dihydro-2H,15′H-spiro[naphthalene-1,22′-[20]oxa[13]thia[1,14]diazatetracyclo [14.7.2.0~3,6~.0~19,24~]pentacosa[16,18,24]trien]-15′-one 13′,13′-dioxide]	0.175 nM			3760 nM

— patent US10821115B2, “Compounds that inhibit Mcl-1 protein” (priority 2017, dated 2020)
